Test results: patent publication US10053453B2, “Compounds and their use as BACE inhibitors” (AstraZeneca AB, priority 2014, dated 2018)
Where two headings read alike, the source gives them in different places.

Key:
Human BACE2 = molecular target: T1, Human BACE2 (Homo sapiens, UniProt Q9Y5Z0); assay: TR-FRET assay; assay type: biochemical; conditions: enzyme 2.7 μg/mL, substrate 100 nM, pH4.5
T1 construct: the soluble part of the human β-Secretase2 (AA1-AA473) was cloned using BACE2(1-473)-(AVT)-Fc-pDEST12.2 mammalian expression vector; AVT linker (C); made in house
T1 sequence (Q9Y5Z0 21-473): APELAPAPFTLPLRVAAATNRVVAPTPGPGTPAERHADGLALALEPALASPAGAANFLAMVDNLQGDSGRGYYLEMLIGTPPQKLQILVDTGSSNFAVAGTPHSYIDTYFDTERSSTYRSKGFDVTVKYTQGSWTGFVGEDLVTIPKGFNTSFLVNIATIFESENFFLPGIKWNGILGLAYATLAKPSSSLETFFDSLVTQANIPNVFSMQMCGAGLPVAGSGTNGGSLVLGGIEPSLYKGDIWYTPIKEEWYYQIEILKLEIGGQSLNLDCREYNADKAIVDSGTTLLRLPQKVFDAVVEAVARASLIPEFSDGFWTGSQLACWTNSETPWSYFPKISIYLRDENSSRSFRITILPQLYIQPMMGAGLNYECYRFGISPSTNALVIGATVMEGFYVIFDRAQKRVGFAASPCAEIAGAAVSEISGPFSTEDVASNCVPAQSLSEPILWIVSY
Experimental: (§1) The β-secretase enzyme used in the TR-FRET was prepared as follows:
(§2) Human BACE1: the cDNA for the soluble part of the human β-Secretase1 (AA1-AA460) was cloned using the BACE1(1-460)-(AVT)-Fc-pGEN-IRES-neo mammalian expression vector. The gene was fused to the Fe domain of IgG1 (affinity tag) and stably cloned into HEK 293 cells. […]
(§3) A multidrop Combi was used for the liquid handling. Enzyme (7 μL) was added to the compound plate (containing 0.8 μL of compound in dimethylsulphoxide). The plate was incubated for 10 minutes. Substrate (8 μL) was then added, and the reaction proceeded for 17 minutes at r.t. The reaction was stopped with the addition of Stop solution (5.5 μL, NaOAC, pH 9). Fluorescence was measured on a Pherastar plate reader using HTRF module. […] 5 reference inhibitors with different affinities were used at all screen occasions in dose response.

SH-SY5Y cells = assay: sAPPβ release assay
Experimental: Cells were thawed and seeded at a concentration of around 10000 cells/well in DMEM/F-12 with Glutamax, 10% FCS and 1% non-essential amino acids to a 384-well tissue culture treated plate, 30 μL cell susp/well. The cell plates were then incubated for 7-24 h at 37° C., 5% CO2.
The cell medium was removed, followed by addition of 50 μL compound diluted in DMEM/F-12 with Glutamax, 10% FCS, 1% non-essential amino acids to a final cone of 0.5% DMSO. The compounds were incubated with the cells for 16-17 h (overnight) at 37° C., 5% CO2.
Meso Scale Discovery (MSD) plates were used for the detection of sAPP release. MSD sAPPβ plates were blocked in 1% BSA in Tris wash buffer for 1 h on shake at r.t. and washed 1 time in Tris wash buffer. […] The MSD plates were incubated with shaking at r.t. for 2 h and the media discarded. 10 μL detection antibody was added (1 nM) per well followed by incubation with shaking at r.t. for 2 h and then discarded. 35 μL Read Buffer was added per well and the plates were read in a Meso Scale Discovery SECTOR6000 Imager.

Human BACE1 = molecular target: T2, Human BACE1 (Homo sapiens, UniProt P56817); assay: Diluted TR-FRET assay; assay type: biochemical; conditions: 50 times less enzyme, 6.5 h reaction time at r.t.; read-out: IC50 BACE1 (dil. TR-FRET)
T2 construct: the soluble part of the human β-Secretase1 (AA1-AA460) was cloned using the BACE1(1-460)-(AVT)-Fc-pGEN-IRES-neo mammalian expression vector; AVT linker (C); made in house
T2 sequence (P56817 22-460): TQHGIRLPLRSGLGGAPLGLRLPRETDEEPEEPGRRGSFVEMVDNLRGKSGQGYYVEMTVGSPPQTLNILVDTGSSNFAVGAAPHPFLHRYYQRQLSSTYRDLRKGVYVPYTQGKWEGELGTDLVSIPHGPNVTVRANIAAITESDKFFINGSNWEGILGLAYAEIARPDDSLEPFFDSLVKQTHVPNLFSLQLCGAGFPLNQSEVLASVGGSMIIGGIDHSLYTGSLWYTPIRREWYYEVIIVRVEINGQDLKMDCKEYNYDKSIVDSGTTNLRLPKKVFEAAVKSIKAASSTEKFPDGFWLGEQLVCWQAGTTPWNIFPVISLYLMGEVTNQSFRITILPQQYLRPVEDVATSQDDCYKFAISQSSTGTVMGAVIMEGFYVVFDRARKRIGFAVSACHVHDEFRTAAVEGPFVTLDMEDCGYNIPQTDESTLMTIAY
Experimental: as §1, §2
as §3, with “Substrate (8 μL) was then added, and the reaction proceeded for 17 minutes at r.t.” left out

[1] = Homo sapiens, SH-SY5Y, read-out: IC50 Cell (sAPPβ release, nM), SH-SY5Y cells, compounds incubated 16-17 h
[2] = Homo sapiens, SH-SY5Y, read-out: IC50 Cell (sAPPβ release, nM)

Structure (SMILES)	IC50 (Human BACE2) [nM]	IC50 (SH-SY5Y cells; [1]) [nM]	IC50 (SH-SY5Y cells; [2]) [nM]	also measured
[2H]C1([2H])OC(N)=N[C@]12c1cc(-c3cccnc3F)ccc1C[C@@]21CC[C@H](OC)[C@@H](C)C1 [Compound 5, (1S,1′R,3S,4S)-6′-(2-fluoropyridin-3-yl)-4-methoxy-3-methyl-3′H,5″H-dispiro[cyclohexane-1,2′-indene-1′,4″-oxazol]-5″,5″-d2-2″-amine]	888	1.6		
[2H]C1([2H])OC(N)=N[C@]12c1cc(-c3cncc(F)c3)ccc1C[C@@]21CC[C@H](OC)[C@@H](C)C1 [Compound 9, (1S,1′R,3S,4S)-6′-(5-fluoropyridin-3-yl)-4-methoxy-3-methyl-3′H,5″H-dispiro[cyclohexane-1,2′-indene-1′,4″-oxazol]-5″,5″-d2-2″-amine]	118	0.5		
COC1CCC2(CC1)Cc1ccc(-c3cc(Cl)cc(C#N)c3)cc1C21COC(N)=N1 (centres unmarked) [Compound 18, 3-((1r,4r)-2″-amino-4-methoxy-3′H,5″H-dispiro[cyclohexane-1,2′-indene-1′,4″-oxazol]-6′-yl-5″,5″-d2)-5-chlorobenzonitrile]				IC50 (SH-SY5Y cells; read-out: IC50 Cell (sAPPβ release), SH-SY5Y cells, compounds incubated 16-17 h): 3.3 nM
[2H]C1([2H])OC(N)=N[C@]12c1cc(-c3cncc(F)c3)ccc1C[C@]21CC[C@@H](OC)[C@H](C)C1 [Compound 25, (1R,1′R,3R,4R)-6′-(5-fluoropyridin-3-yl)-4-methoxy-3-methyl-3′H,5″H-dispiro[cyclohexane-1,2′-indene-1′,4″-oxazol]-5″,5″-d2-2″-amine]	135	1.8		
CO[C@@H]1CC[C@]2(Cc3ccc(-c4cncnc4)cc3[C@@]23COC(N)=N3)C[C@H]1C [Compound 33, (1R,1′R,3R,4R)-4-methoxy-3-methyl-6′-(pyrimidin-5-yl)-3′H,5″H-dispiro[cyclohexane-1,2′-indene-1′,4″-oxazol]-2″-amine]			2.2	
[2H]C1([2H])OC(N)=NC12c1cc(-c3cc(C#N)cc(OC)c3)ccc1C[C@]21CC[C@@H](OC)CC1 (some centres unmarked) [Compound 36, 3-((1r,4r)-2″-amino-4-methoxy-3′H,5″H-dispiro[cyclohexane-1,2′-indene-1′,4″-oxazol]-6′-yl-5″,5″-d2)-5-methoxybenzonitrile]			4	
CO[C@H]1CC[C@]2(CC1)Cc1ccc(-c3cncc(C)c3)cc1C21COC(N)=N1 (some centres unmarked) [Compound 41, (1r,4r)-4-methoxy-6′-(5-methylpyridin-3-yl)-3′H,5″H-dispiro[cyclohexane-1,2′-indene-1′,4″-oxazol]-2″-amine]			5.1	
CO[C@H]1CC[C@]2(CC1)Cc1ccc(-c3cncnc3)cc1[C@@]21COC(N)=N1 [Compound 47, (1r,1′R,4R)-4-methoxy-6′-(pyrimidin-5-yl)-3′H,5″H-dispiro[cyclohexane-1,2′-indene-1′,4″-oxazol]-2″-amine]			9.1	IC50 (Human BACE1): 152 nM
CO[C@H]1CC[C@]2(CC1)Cc1ccc(-c3cncnc3)cc1C21COC(N)=N1 (some centres unmarked) [Compound 50, (1r,4r)-4-methoxy-6′-(pyrimidin-5-yl)-3′H,5″H-dispiro[cyclohexane-1,2′-indene-1′,4″-oxazol]-2″-amine]			16	IC50 (Human BACE1): 579 nM
[2H]C([2H])([2H])O[C@H]1CC[C@@]2(Cc3ccc(-c4cncc(F)c4)cc3[C@]23N=C(N)OC3([2H])[2H])C[C@@H]1C [Compound 66, (1S,1′R,3S,4S)-6′-(5-fluoropyridin-3-yl)-4-(methoxy-d3)-3-methyl-3′H,5″H-dispiro[cyclohexane-1,2′-indene-1′,4″-oxazol]-5″,5″-d2-2″-amine]	134	< 0.16		
[2H]C1([2H])OC(N)=N[C@]12c1cc(-c3cccnc3F)ccc1C[C@]21CC[C@@H](OC)[C@H](C)C1 [Compound 67, (1R,1′R,3R,4R)-6′-(2-fluoropyridin-3-yl)-4-methoxy-3-methyl-3′H,5″H-dispiro[cyclohexane-1,2′-indene-1′,4″-oxazol]-5″,5″-d2-2″-amine]	736	1.7		
[2H]C1([2H])OC(N)=N[C@]12c1cc(-c3cncnc3)ccc1C[C@@]21CC[C@H](OC)[C@@H](CC)C1 [Compound 68, (1S,1′R,3S,4S)-3-ethyl-4-methoxy-6′-(pyrimidin-5-yl)-3′H,5″H-dispiro[cyclohexane-1,2′-indene-1′,4″-oxazol]-5″,5″-d2-2″-amine]			1.9	
[2H]C([2H])([2H])O[C@H]1CC[C@@]2(Cc3ccc(-c4cncnc4)cc3[C@]23N=C(N)OC3([2H])[2H])C[C@@H]1C [Compound 71, (1S,1′R,3S,4S)-4-(methoxy-d3)-3-methyl-6′-(pyrimidin-5-yl)-3′H,5″H-dispiro[cyclohexane-1,2′-indene-1′,4″-oxazol]-5″,5″-d2-2″-amine]			1.3	
[2H]C([2H])([2H])O[C@@H]1CC[C@]2(Cc3ccc(-c4cncnc4)cc3[C@]23N=C(N)OC3([2H])[2H])C[C@H]1C [Compound 73, (1R,1′R,3R,4R)-4-(methoxy-d3)-3-methyl-6′-(pyrimidin-5-yl)-3′H,5″H-dispiro[cyclohexane-1,2′-indene-1′,4″-oxazol]-5″,5″-d2-2″-amine]			6.1	
[2H]C([2H])([2H])O[C@H]1CC[C@@]2(Cc3ccc(-c4cccnc4F)cc3[C@]23N=C(N)OC3([2H])[2H])C[C@@H]1C [Compound 74, (1S,1′R,3S,4S)-6′-(2-fluoropyridin-3-yl)-4-(methoxy-d3)-3-methyl-3′H,5″H-dispiro[cyclohexane-1,2′-indene-1′,4″-oxazol]-5″,5″-d2-2″-amine]		0.39		
[2H]C1([2H])OC(N)=N[C@]12c1cc(-c3cncnc3)ccc1C[C@]21CC[C@@H](OC)[C@H](CC)C1 [Compound 75, (1R,1′R,3R,4R)-3-ethyl-4-methoxy-6′-(pyrimidin-5-yl)-3′H,5″H-dispiro[cyclohexane-1,2′-indene-1′,4″-oxazol]-5″,5″-d2-2″-amine]			0.9	
[2H]C1([2H])OC(N)=N[C@]12c1cc(-c3cc(F)cnc3F)ccc1C[C@@]21CC[C@H](OC)[C@@H](C)C1 [Compound 76, (1S,1′R,3S,4S)-6′-(2,5-difluoropyridin-3-yl)-4-methoxy-3-methyl-3′H,5″H-dispiro[cyclohexane-1,2′-indene-1′,4″-oxazol]-5″,5″-d2-2″-amine]	231	0.5		
CO[C@H]1CC[C@]2(CC1)Cc1ccc(-c3cncc(C)c3)cc1[C@@]21COC(N)=N1 [Compound 77, (1r,1′R,4R)-4-methoxy-6′-(5-methylpyridin-3-yl)-3′H,5″H-dispiro[cyclohexane-1,2′-indene-1′,4″-oxazol]-2″-amine]			7.5	
[2H]C([2H])([2H])O[C@@H]1CC[C@]2(Cc3ccc(-c4cccnc4F)cc3[C@]23N=C(N)OC3([2H])[2H])C[C@H]1C [Compound 78, (1R,1′R,3R,4R)-6′-(2-fluoropyridin-3-yl)-4-(methoxy-d3)-3-methyl-3′H,5″H-dispiro[cyclohexane-1,2′-indene-1′,4″-oxazol]-5″,5″-d2-2″-amine]	895	1.5		
[2H]C([2H])([2H])O[C@@H]1CC[C@]2(Cc3ccc(-c4cncc(F)c4)cc3[C@]23N=C(N)OC3([2H])[2H])C[C@H]1C [Compound 79, (1R,1′R,3R,4R)-6′-(5-fluoropyridin-3-yl)-4-(methoxy-d3)-3-methyl-3′H,5″H-dispiro[cyclohexane-1,2′-indene-1′,4″-oxazol]-5″,5″-d2-2″-amine]	207	2.1		
[2H]C1([2H])OC(N)=N[C@]12c1cc(-c3cc(F)cnc3F)ccc1C[C@]21CC[C@@H](OC)[C@H](C)C1 [Compound 109, {(1R,1′R,3R,4R)-6′-(2,5-difluoropyridin-3-yl)-4-methoxy-3-methyl-3′H,5″H-dispiro[cyclohexane-1,2′-indene-1′,4″-oxazol]-5″,5″-d2-2″-amine}]	458	1.8		
